# From ChEMBL document CHEMBL1146151, “Polyoxometalates--a new class of potent ecto-nucleoside triphosphate diphosphohydrolase (NTPDase) inhibitors” (Bioorg Med Chem Lett, 2006)
# Target: T1, Ectonucleoside triphosphate diphosphohydrolase 2 (Rattus norvegicus) (UniProt O35795)
# T1 sequence (whole entry): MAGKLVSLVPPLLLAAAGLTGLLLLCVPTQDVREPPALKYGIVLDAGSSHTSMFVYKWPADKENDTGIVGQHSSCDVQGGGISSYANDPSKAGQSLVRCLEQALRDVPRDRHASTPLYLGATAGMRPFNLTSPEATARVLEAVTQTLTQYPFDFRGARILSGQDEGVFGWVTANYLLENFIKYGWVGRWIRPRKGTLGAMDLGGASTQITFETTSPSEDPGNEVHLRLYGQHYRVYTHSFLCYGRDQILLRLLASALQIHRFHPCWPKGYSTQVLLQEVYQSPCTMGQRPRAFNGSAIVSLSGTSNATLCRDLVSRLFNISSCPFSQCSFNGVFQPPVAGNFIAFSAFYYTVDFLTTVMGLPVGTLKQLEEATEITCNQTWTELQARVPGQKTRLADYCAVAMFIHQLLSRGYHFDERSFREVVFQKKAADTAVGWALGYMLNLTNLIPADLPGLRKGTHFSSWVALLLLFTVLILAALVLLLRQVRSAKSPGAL
# Conditions: CHO, 1 mM
# Description: Inhibition of rat recombinant NTPDase2 expressed in CHO cells at 1 mM
compound,measurement,value
CCN(CC)c1ncnc2c1ncn2[C@@H]1O[C@H](COP(=O)(O)OP(=O)(O)C(Br)(Br)P(=O)(O)O)[C@@H](O)[C@H]1O,inhibition,50%
